According to PMC8765437, “GSK3640254 Is a Novel HIV-1 Maturation Inhibitor with an Optimized Virology Profile” (Antimicrobial Agents and Chemotherapy, 2022):
Where two headings read alike, the source gives them in different places.

How the values were obtained:
[1] = Human serum protein binding, ultracentrifugation assay; format: in vitro ADME
[2] = tested on: HIV-1 laboratory strains; assay: Laboratory strains, luciferase activity in CEM-NKR-CCR5-Luc cells; format: cell-based
Method: Virus yields were measured in dose-response experiments by either luciferase activity in human T-cells (CEM-NKR-CCR5-Luc), extracellular reverse transcriptase activity in MT-2 cells (T-tropic viruses), or extracellular p24 antigen in PM1 cells (M-tropic viruses).
(§1) Multiple-cycle assays using recombinant viruses or clinical isolates were used to assess MI antiviral activity as described previously ([10]). pNLRepRlucP373S (the P373S change is in the Gag gene and converts an outlier polymorphism in the NL4-3 gene to the prevalent amino acid in the population) plasmids containing SDMs in Gag or gag/pr regions from clinical isolates were transfected into HEK 293T cells, and the supernatant containing recombinant virus was harvested after 4 to 5 days. Virus was used to infect MT-2 cells in the presence of a 3-fold serially diluted compound at a final dimethyl sulfoxide (DMSO) concentration of 1%. The inocula of the reporter viruses were determined based on the luciferase activity detected on day 4 postinfection. The MOI (ratio of infectious virions to target cells) of reporter-free laboratory strains and clinical isolates was 0.005, as derived from a tissue culture infectious dose study. Clinical isolates or reporter-free viruses were examined in the reporter CEM-NKR-CCR5-Luc cells or PBMCs at MOIs ranging from 0.005 to 0.01. Each infection started with a drug-free preincubation of the cell-virus mixtures, performed at 37°C and 5% CO2 for either 1 h at 2 times the final cell density (reporter viruses) or 1 h (reporter-free laboratory strains) or 3 h (clinical isolates) using cell pellets in 0.5 mL of medium. After preincubation, cell-virus mixtures were added to compound-containing 96-well plates for a final cell density of either 10,000 (MT-2 cells for reporter viruses), 20,000 (MT-2 and PM1 cells for reporter-free laboratory strains), 200,000 (PBMCs for clinical isolates), or 500,000 (CEM-NKR-CCR5-Luc for reporter-free laboratory strains) cells per well. The CEM-NKR-CCR5-Luc cell assay was performed in the presence of Polybrene (10 μg/mL). Virus growth was determined on days 4 to 5 postinfection for reporter variants or days 5 to 11 for the other viruses. The reporter viruses were detected by a luciferase assay according to manufacturer protocols (Brite-Glo luciferase kit [Promega] for CEM-NKR-CCR5-Luc cells and Dual-Luciferase Reporter 1000 assay system [Promega] for the other cells), and luminescence was detected on a Wallac Trilux. The growth of clinical isolates in PBMCs was quantitated by reverse transcriptase activity in a 96-well scintillation proximity assay (SPA). Twenty microliters of culture supernatants was mixed with 40 μL of reaction cocktail (62.5 mM Tris-HCl [pH 7.8], 100 mM KCl, 0.0625% NP-40, 2.5 mM dithiothreitol [DTT], 6.25 mM MgCl2, 1 mM EGTA, 6.25 μg/mL of poly rA, 2.5 μg/mL of streptavidin SPA beads prebound with biotinylated-dT12-18, and 1 μCi of [^3H]TTP). Mixtures were incubated at 37°C for ∼3 h and quenched with 100 μl of 0.25 M EDTA per well. Luminescence was detected on a Wallac Trilux programmed for tritium counting with SPA beads in opaque plates. The growth of the reporter-free laboratory M-tropic strains and clinical isolates was monitored by a p24 enzyme-linked immunosorbent assay (ELISA; PerkinElmer Life Sciences, Waltham, MA) performed on culture supernatants.
Maximal percent inhibition values were calculated as MPI = 100 – (mean signals at the 2 highest concentrations of compound/mean signal of 2 no-drug control wells) × 100.

[3] = tested on: HIV-1 clinical isolates; assay: Inhibition of clinical isolates in PBMCs; format: cell-based; details: Human immunodeficiency virus 1, PBMC
Method: Human peripheral blood mononuclear cells (PBMCs) were infected with isolates, and virus yields were measured by determining extracellular p24 protein levels (Table 4). […] These isolates were also examined in the NLRepRlucP373S virus by replacement of the gag/pr genes with those from these clinical isolates.
Peripheral blood mononuclear cells (BioReclamation, Westbury, NY) were cultured at 37°C and 5% CO2 in RPMI 1640 medium with 20% fetal bovine serum (Gibco Laboratories), 100 units/mL of penicillin G, 100 units/mL of streptomycin (Gibco Laboratories), and 1 ng/mL of recombinant human interleukin-2 (Invitrogen, Carlsbad, CA). Peripheral blood mononuclear cells were stimulated with 2 μg/mL of phytohemagglutinin (Sigma-Aldrich, St. Louis, MO) for 2 days before infection with HIV-1 clinical isolates.
as §1

[4] = tested on: NL4-3P373S viruses (WT and V370A); assay: Resistance selection by serial passage in increasing GSK’254 concentrations; format: cell-based, HIV-1; details: starting concentration 2 nM GSK’254
Method: NL4-3GagP373S (WT) and the SDM NL4-3 GagP373SV370A (V370A) were used to start the selections. These variants were selected as parent virus based on common WT and V370A expression in HIV-1 subtypes (47% WT and ∼36% V370A as indicated by the LANL HIV sequence database (https://www.hiv.lanl.gov/content/index). Each selection was performed in triplicate, starting with 2 × 10^6 MT-2 cells infected with each virus at an MOI of 0.005 (50% tissue culture infectious dose determined by CPE and cultured in 2 × 10^5 cells/mL in compound-containing medium). Each passage was terminated at ∼100% CPE. To passage virus, the cultures were centrifuged, and 25 μL of viral supernatants was transferred into 10 mL of a fresh cell culture in the presence of a 2-fold-increased compound concentration.

[5] = Estimation of minimum plasma concentration required for clinical efficacy; set-up: species or system human; details: multiples higher than PBA EC90 of the vast majority of HIV-1 isolates
Text: These viruses were chosen to be representative of the population of Gag genes as a whole, including known polymorphism-containing viruses with reduced susceptibility to GSK’795, as well as SDM viruses with multiple changes that had previously been identified as relevant for susceptibility to earlier MIs ([7], [11]).

[6] = tested on: HIV-1; set-up: method as in PMID 30352054; details: in combination with emtricitabine and tenofovir disoproxil fumarate; cited from earlier work
[7] = read-out: Mean EC50, subtype A 92UG037
[8] = read-out: Mean EC50, subtype A 93RW029
[9] = read-out: Mean EC50, subtype A 93RW034
[10] = read-out: Mean EC50, subtype AE 93TH023
[11] = read-out: Mean EC50, subtype AE 93TH053
[12] = read-out: Mean EC50, subtype AE CMU010
[13] = read-out: Mean EC50, subtype B 92BR003
[14] = read-out: Mean EC50, subtype B 92BR018
[15] = read-out: Mean EC50, subtype B 93BR009
[16] = read-out: Mean EC50, subtype B 93BR013
[17] = read-out: Mean EC50, subtype B 93BR017
[18] = read-out: Mean EC50, subtype C 93MW960
[19] = read-out: Mean EC50, subtype C 97ZA012
[20] = read-out: Mean EC50, subtype C 98BR004
[21] = read-out: Mean EC50, subtype C 10215-6
[22] = read-out: Mean EC50, subtype C 20706-3
[23] = read-out: Mean EC50, subtype C MJ4

For `C=C(C)[C@@H]1CC[C@]2(NCCN3CCS(=O)(=O)CC3)CC[C@]3(C)[C@H](CC[C@@H]4[C@@]5(C)CC=C(C6=CC[C@@](CF)(C(=O)O)CC6)C(C)(C)[C@@H]5CC[C@]43C)[C@@H]12` [GSK’254], the fraction unbound [1] was 0.14, the EC50 ([2]; Human immunodeficiency virus 1, 8 HIV-1 laboratory strains (luciferase or p24 endpoints), read-out: mean (standard error of the mean) EC50) was 0.8 nM and the EC50 ([2]; Human immunodeficiency virus 1, 8 HIV-1 laboratory strains, read-out: EC50 range) was 0.3 to 1.2 nM. For the same compound, the EC50 ([2]; Human immunodeficiency virus 1, HXB2, HXB2, T tropic, read-out: EC50 ± SD) was 0.7 ± 0.1 nM, the EC50 ([2]; Human immunodeficiency virus 1, IIIB, IIIB, T tropic, read-out: EC50 ± SD) was 0.6 ± 0.4 nM and the EC50 ([2]; Human immunodeficiency virus 1, LAI, T tropic, read-out: EC50 ± SD) was 0.7 ± 0.1 nM. The EC50 ([2]; Human immunodeficiency virus 1, MN, T tropic, read-out: EC50 ± SD) was 0.3 nM, the EC50 ([2]; Human immunodeficiency virus 1, NL43, NL4-3, T tropic, read-out: EC50 ± SD) was 0.9 ± 0.2 nM and the EC50 ([2]; Human immunodeficiency virus 1, RF, T tropic, read-out: EC50 ± SD) was 0.9 ± 0.15 nM. For the same compound, the EC50 ([2]; Human immunodeficiency virus 1, reporter cell line, read-out: EC50 values for T-tropic HIV-1) was < 1 nM, the EC50 [3, 7] was 5 nM and the EC50 [3, 8] was 3 nM. It also gave an EC50 [3, 9] of 1 nM, an EC50 [3, 10] of 1 nM and an EC50 [3, 11] of 5 nM. It also gave an EC50 [3, 12] of 3 nM, an EC50 [3, 13] of 2 nM and an EC50 [3, 14] of 77 nM. It also gave an EC50 ([3]; read-out: Mean EC50, subtype B 93BR008) of 50 nM, an EC50 [3, 15] of 1 nM and an EC50 [3, 16] of 3 nM. It also gave an EC50 [3, 17] of 1 nM, an EC50 ([3]; read-out: Mean EC50, subtype B 93US143) of 2 nM and an EC50 [3, 18] of 9 nM. The EC50 [3, 19] was 3 nM, the EC50 [3, 20] was 1 nM and the EC50 [3, 21] was 1 nM. It also gave an EC50 [3, 22] of 4 nM, an EC50 [3, 23] of 3 nM and an EC50 ([3]; read-out: mean EC50, subtype A/AE isolates) of 3 nM. For the same compound, the EC50 ([3]; read-out: mean EC50, subtype B isolates) was 19 nM, the EC50 ([3]; read-out: mean EC50, subtype C isolates) was 3.5 nM and the “average time until sufficient viral titer to permit passage 1” value [4] was 24 days. For the same compound, the “estimated Cmin (target human steady-state serum concentration)” value [5] was 150 nM.

`C=C(C)[C@@H]1CC[C@]2(NCCN3CCS(=O)(=O)CC3)CC[C@]3(C)[C@H](CC[C@@H]4[C@@]5(C)CC=C(c6ccc(C(=O)O)cc6)C(C)(C)[C@@H]5CC[C@]43C)[C@@H]12` [GSK’795, reference compound] gave an EC50 [3, 7] of 2 nM, an EC50 [3, 8] of 6 nM and an EC50 [3, 9] of 2 nM. For the same compound, the EC50 [3, 10] was 533 nM, the EC50 [3, 11] was 18 nM and the EC50 [3, 12] was 35 nM. The EC50 [3, 13] was 4 nM, the EC50 [3, 14] was 145 nM and the EC50 [3, 15] was 2 nM. It also gave an EC50 [3, 16] of 9 nM, an EC50 [3, 17] of 10 nM and an EC50 [3, 18] of 1580 nM. It also gave an EC50 [3, 19] of 4 nM, an EC50 [3, 20] of 1 nM and an EC50 [3, 21] of 13 nM. It also gave an EC50 [3, 22] of 4 nM, an EC50 [3, 23] of 7 nM and an EC50 ([3]; read-out: mean EC50 toward clinical isolates, panel of HIV-1 clinical isolates, subtypes A, B, C, CRF01_AE) of 138 nM. For the same compound, the gastrointestinal adverse events [6] was “a number of gastrointestinal adverse events”.
